Tests used:
[1] = low solubility, low permeability; cited from earlier work
[2] = Foaming property of fidaxomicin suspensions in water (tube shaken, foaming checked); format: physicochemical; details: 400 mg fidaxomicin in 10 mL distilled water; immediately after preparation and 1 hour after preparation
Description: To 400 mg of fidaxomicin was added 10 mL of distilled water in a tube. The mixture was shaken and allowed to stand.
Hydroxypropylcellulose (HPC-L (middle viscosity grade) and HPC-SSL (low viscosity grade) respectively), in a concentration of 0.3 and 0.6 w/v % respectively, was added to 5 mL of distilled water in a tube which contained 0 and 200 mg respectively of fidaxomicin. Each mixture was shaken and allowed to stand.
Xanthan gum in a concentration of 0.2% w/v was added to 5 mL of distilled water in a tube, which contained 0 and 200 mg respectively of fidaxomicin. Each mixture was shaken and allowed to stand.
An amount of the granulate corresponding to 200 mg fidaxomicin was weighed into a tube and 5 ml, of water was added. The tube was vigorously shaken for about 1 min. Foaming of the suspension was not observed.
An amount of each of the granulates OS-5-OS-9, corresponding to 200 mg fidaxomicin, was weighed into a tube and 5 mL of water was added. Further, suspensions OS-10 and OS-11 were prepared by addition of 2.5 mg and 5.0 mg respectively of xanthan gum to a suspension with composition OS-5. Each tube was vigorously shaken for about 1 min. In none of the suspensions foaming was observed.
Each of the granulate compositions OS-1, OS-2 and OS-3 was weighed into a tube, water was added and the tubes were vigorously shaken for about 1 minute. […]

[3] = Storage stability of fidaxomicin with a sugar in a ratio of 1:9; format: physicochemical; details: glass bottle
Description: Fidaxomicin and a sugar, selected from the group consisting of D-mannitol, erythritol, isomalt and trehalose, in a ratio of 1:9, were transferred into a glass bottle and stored at 5° C. during 10 days, 70° C. during 9 days and 40° C./75% RH during 1 month, respectively. In the presence of each sugar the degradation of fidaxomicin increased when stored at 70° C. during 9 days. […] (see Table 7).

[4] = oral administration; cited from earlier work

foaming property on contact with water [2]: intrinsically foaming property | Total related substances (%) ([3]; 5° C./10 days): 1.91% | Total related substances (%) ([3]; 70° C./9 days): 5.10%
Compound: CCc1c(Cl)c(O)c(Cl)c(O)c1C(=O)O[C@H]1[C@H](O)[C@H](OC)[C@H](OC/C2=C\C=C\C[C@H](O)/C(C)=C/[C@H](CC)[C@@H](O[C@@H]3OC(C)(C)[C@@H](OC(=O)C(C)C)[C@H](O)[C@@H]3O)/C(C)=C/C(C)=C/C[C@@H]([C@@H](C)O)OC2=O)O[C@@H]1C [fidaxomicin, 3-[[[6-deoxy-4-O-(3,5-dichloro-2-ethyl-4,6-dihydroxybenzoyl)-2-O-methyl-β-D-mannopyranosyl]oxy]methyl]-12(R)-[[6-deoxy-5-C-methyl-4-O-(2-methyl-1-oxopropyl)-β-D-lyxo-hexopyranosyl]oxy]-11(S)-ethyl-8(S)-hydroxy-18(S)-(1(R)-hydroxyethyl)-9,13,15-trimethyloxacyclooctadeca-3,5,9,13,15-pentaen-2-one]
BCS class [1]: BCS Class IV | absorption from the intestinal tract [4]: poorly absorbed

Reference: patent publication US9808530B2, “Composition of tiacumicin compounds” (Astellas Pharma Europe Ltd., priority 2013, dated 2017)
